We go through 33 compounds from patent publication US20240083872A1, “CYCLIC AMINE DERIVATIVES HAVING SEROTONIN RECEPTOR BINDING ACTIVITY” (Shionogi & Co., Ltd., priority 2020, published 2024).

Like-named read-outs stand apart in the source and are kept apart here.

The term Ki denotes the equilibrium dissociation constant of an inhibitor or competing ligand from its target.

Assay [1] addresses human recombinant 5-HT2A receptor (Homo sapiens (Human), UniProt P28223). The experiment in a line: 5-HT2A receptor binding inhibition test ([3H]-Ketanserin). The note with it: Jump-In HEK cell membrane. Here is the method: Test Example 1: 5-HT2A Receptor Binding Inhibition Test
(§1) (Each Experimental Condition)
Cell membrane: Jump-In HEK cell membrane (expressing human recombinant 5-HT2A receptor)
(§2) Assay buffer: Tris-HCl 50 mmol/L (pH 7.4) containing NaCl 120 mmol/L, MgCl2.6H2O 1 mmol/L, KCl 5 mmol/L, 0.1% BSA, and CaCl2 2 mmol/L
Radioactive ligand: [^3H]-Ketanserin around Kd value calculated by the following method
(§3) Non-specific ligand: Serotonin HCl
(§4) The Kd value was calculated when the lot of cell membrane was changed. In advance, 0.5 μL of a 1 mmol/L compound for non-specific binding calculation dissolved in DMSO or DMSO was dispensed into a microplate, and the cell membrane was diluted with an Assay buffer. The radioactive ligand solution was serially diluted and the count was confirmed with a liquid scintillator. Assay buffer containing diluted cell membrane was dispensed into a microplate at 50 μL/well. Then, the radioactive ligand solution was dispensed into a microplate at 50 μL/well, and the plate was sealed. It was allowed to stand at room temperature (25° C.) for 1.5 hours. During this period, 50 mmol/L Tris-HCl (pH 7.4) was dispensed into a GF/B UniFilter plate at 50 μL/well and allowed to stand at 4° C. for 1 hour or longer. After that, filtration was performed with Cell harvester (PerkinElmer). The radioactive ligand solution was dispensed into an empty well of the GF/B UniFilter plate at 10 μL/well. After the GF/B UniFilter plate was dried at room temperature, MicroScinti 20 was dispensed into the GF/B UniFilter plate at 50 μL/well, and the plate was sealed. The GF/B UniFilter plate was allowed to stand overnight at room temperature. The radioactivity of [^3H]-Ketanserin bound to the 5-HT2A receptor was measured using Microbeta2 (PerkinElmer) at a measurement time of 1 min/well. The Saturation curve was drawn from the measured value, and the Kd value was calculated from the slope of the Scatchard Plot.
(§5) (Binding Test of the Compound According to the Present Invention)
(§6) In advance, 0.5 μL of the compound solution dissolved in DMSO was dispensed into a microplate, and the cell membrane and the hot ligand were diluted with Assay buffer, respectively. Then, the Assay buffer containing the diluted cell membrane was dispensed into a microplate at 50 μL/well. Then, the radioactive ligand solution was dispensed into a microplate at 50 μL/well, and the plate was sealed. Then, it was allowed to stand at room temperature (25° C.) for 1.5 hours. During this period, 50 mmol/L Tris-HCl (pH 7.4) was dispensed into a GF/B UniFilter plate at 50 μL/well and allowed to stand at 4° C. for 1 hour or longer. After that, filtration was performed with Cell harvester (PerkinElmer). After the GF/B UniFilter plate was dried at room temperature, MicroScinti 20 was dispensed into the GF/B UniFilter plate at 50 μL/well, and the plate was sealed. The GF/B UniFilter plate was allowed to stand overnight at room temperature. The radioactivity of [^3H]-Ketanserin bound to the 5-HT2A receptor was measured using Microbeta2 (PerkinElmer) at a measurement time of 1 min/well. The non-specific binding was calculated from the radioactivity of [^3H]-Ketanserin in the presence of […] Serotonin HCl with the unlabeled ligand, and the total binding was calculated from the radioactivity of [^3H]-Ketanserin in the absence of the compound according to the present invention (Vehicle). Finally, the Ki value was calculated from the dose-response curve.
(§7) (The binding activity of the compound according to the present invention was calculated from the following binding inhibition rate (%).)
(§8) Inhibition rate (%)=[1−(c−a)/(b−a)]×100 • a; mean cpm of non-specific binding • b; mean cpm of total binding • c; cpm in the presence of the test compound

Assay [2] concerns the target human recombinant 5-HT2C receptor (Homo sapiens (Human), UniProt P28335). The experiment in a line: 5-HT2C receptor binding inhibition test ([3H]-Mesulergine). The note with it: Jump-In HEK cell membrane, [3H]-Mesulergine. As for the experimental part:
as §1
Cell membrane: Jump-In HEK cell membrane (expressing human recombinant 5-HT2C receptor)
as §2
Radioactive ligand: [^3H]-Mesulergine around Kd value calculated by the following method
as §3
as §4, with “[…]” for “4°”, “The radioactivity of [^3H]-Ketanserin bound to the 5-HT2A receptor was measured using Microbeta2 (PerkinElmer) at a measurement time of 1 min/well.” left out
as §5
as §6, with “37° C.” for “room temperature (25° C.)”, “2” for “1.5”, “The radioactivity of [^3H]-Ketanserin bound to the 5-HT2A receptor was measured using Microbeta2 (PerkinElmer) at a measurement time of 1 min/well.” left out, “[^3H]-Mesulergine” for “[^3H]-Ketanserin”
as §7, §8

The mark [3] stands for this setting: read-out: human serotonin 5-HT2A receptor binding activity, Ki value.
[4] abbreviates: read-out: human serotonin 5-HT2C receptor binding inhibitory activity, Ki value.

human recombinant 5-HT2C receptor, sequence (P28335 33-458): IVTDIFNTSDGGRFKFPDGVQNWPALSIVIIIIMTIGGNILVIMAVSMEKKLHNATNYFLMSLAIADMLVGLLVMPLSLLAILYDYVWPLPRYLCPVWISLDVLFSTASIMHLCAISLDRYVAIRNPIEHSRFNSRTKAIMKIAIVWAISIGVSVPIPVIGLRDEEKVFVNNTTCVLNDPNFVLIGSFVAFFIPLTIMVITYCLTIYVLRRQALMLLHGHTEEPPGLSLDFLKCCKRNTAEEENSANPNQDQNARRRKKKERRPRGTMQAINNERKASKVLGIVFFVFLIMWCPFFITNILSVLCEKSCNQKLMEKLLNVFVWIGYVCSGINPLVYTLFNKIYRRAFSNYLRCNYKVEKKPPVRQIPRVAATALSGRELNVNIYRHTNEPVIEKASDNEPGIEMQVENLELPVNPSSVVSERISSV
human recombinant 5-HT2A receptor, sequence (P28223 whole entry): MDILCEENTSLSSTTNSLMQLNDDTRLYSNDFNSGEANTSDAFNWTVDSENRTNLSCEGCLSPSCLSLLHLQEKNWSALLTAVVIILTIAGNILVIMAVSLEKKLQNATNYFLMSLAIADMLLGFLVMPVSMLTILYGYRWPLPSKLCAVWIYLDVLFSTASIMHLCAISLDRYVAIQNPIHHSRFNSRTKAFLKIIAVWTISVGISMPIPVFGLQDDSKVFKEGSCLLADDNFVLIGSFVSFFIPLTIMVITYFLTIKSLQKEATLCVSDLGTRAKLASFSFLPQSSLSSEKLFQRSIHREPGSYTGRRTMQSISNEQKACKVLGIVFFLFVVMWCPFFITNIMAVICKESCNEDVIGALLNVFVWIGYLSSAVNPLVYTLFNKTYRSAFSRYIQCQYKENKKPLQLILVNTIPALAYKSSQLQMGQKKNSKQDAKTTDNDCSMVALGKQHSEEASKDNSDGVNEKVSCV

As to `CC(C)COc1ccc(CN(Cc2ccn(C)n2)C(=O)NC2CCCN(C)CC2)cc1` (racemic) [Compound I-004], the Ki in assay [1] (setting [3]) was determined as 4.51 nM; in assay [2] (setting [4]), 11.5 nM. As for `CC(C)COc1ccc(CN(Cc2ccn(C)n2)C(=O)N[C@@H]2CCNC[C@H]2F)cc1` (racemic) [Compound I-018], the Ki in assay [1] (read-out: h-5-HT2A Ki) and in assay [2] (read-out: h-5-HT2C Ki) was 10 to 100 nM each time. As for `CC(C)COc1ccc(CN(Cc2ccc(F)cn2)C(=O)NC2CCN(C)CC23CC3)cc1` (racemic) [Compound I-044], the inhibition constant Ki in assay [1] (read-out: h-5-HT2A Ki) and in assay [2] (read-out: h-5-HT2C Ki) was below 10 nM each time. Take `CC(C)COc1ccc(CN(Cc2ccn(C)n2)C(=O)NC2CCN(C)CC23CC3)cc1` (racemic) [Compound I-045]: the inhibitory constant (Ki) in assay [1] (read-out: h-5-HT2A Ki) and in assay [2] (read-out: h-5-HT2C Ki) was below 10 nM in each case. Consider `CC(C)COc1ccc(CN(Cc2ccn(C)n2)C(=O)NC2CCN(C)C2)cc1` (racemic) [Compound I-054], for which, in assay [1] (read-out: h-5-HT2A Ki), the Ki was below 10 nM.

With `CC(C)COc1ccc(CN(Cc2ccn(C)n2)C(=O)NC2CCN(C)C3(CCC3)C2)cc1` (racemic) [Compound I-067], the Ki in assay [1] (read-out: h-5-HT2A Ki) and in assay [2] (read-out: h-5-HT2C Ki) was below 10 nM throughout. Consider `CCCCOc1ccc(CN(Cc2coc(C)n2)C(=O)C(F)C2CCN(C)CC2)cc1F` (racemic) [Compound I-124], for which the Ki in assay [1] (read-out: h-5-HT2A Ki) and in assay [2] (read-out: h-5-HT2C Ki) was below 10 nM in each case. Turning to `CC(C)COc1ccc(CN(Cc2ccc(F)cn2)C(=O)N[C@H]2CCNC[C@H]2F)cc1` (single isomer, unassigned) [Compound I-006], the Ki was 0.968 nM in assay [1] (setting [3]) and 2.47 nM in assay [2] (setting [4]).

On to `CC(C)COc1ccc(CN(Cc2ccc(F)cn2)C(=O)N[C@@H]2CCNC[C@@H]2F)cc1` (single isomer, unassigned) [Compound I-022], for which the Ki in assay [1] (read-out: h-5-HT2A Ki) and in assay [2] (read-out: h-5-HT2C Ki) was 10 to 100 nM each time. For `CC(C)COc1ccc(CN(Cc2ccn(C)n2)C(=O)NC2C3CCC2CN(C)C3)cc1` (single isomer, unassigned) [Compound I-075], the inhibition constant Ki in assay [1] (read-out: h-5-HT2A Ki) and in assay [2] (read-out: h-5-HT2C Ki) was 10 to 100 nM in each case. Consider `CC(C)COc1ccc(CN(Cc2ccsc2)C(=O)NC2CCN(C)CC2)cc1` [Compound I-002], for which the results for the Ki in assay [1] (read-out: h-5-HT2A Ki) and in assay [2] (read-out: h-5-HT2C Ki) were below 10 nM and 10 to 100 nM, respectively.

`CN1CCC(NC(=O)N(Cc2ccc(Oc3ccccc3)cc2)Cc2ccn(C)n2)CC1` [Compound I-003]: the inhibition constant Ki in assay [1] (setting [3]) is 9.93 nM; in assay [2] (setting [4]), 8.39 nM. Consider `Cc1cc(CN(Cc2ccc(OCC(C)C)cc2)C(=O)NC2CCN(C)CC2)nn1C` [Compound I-005], for which the Ki is below 10 nM in assay [1] (read-out: h-5-HT2A Ki) and 10 to 100 nM in assay [2] (read-out: h-5-HT2C Ki). Regarding `CC(C)COc1ccc(CN(Cc2ccccn2)C(=O)NC2CCN(C)CC2)cc1` [Compound I-007], the inhibition constant Ki in assay [1] (read-out: h-5-HT2A Ki) is below 10 nM; in assay [2] (read-out: h-5-HT2C Ki), 10 to 100 nM. Regarding `Cc1ccc(CN(Cc2ccc(OCC(C)C)cc2)C(=O)NC2CCN(C)CC2)s1` [Compound I-008], the Ki in assay [1] (read-out: h-5-HT2A Ki) and in assay [2] (read-out: h-5-HT2C Ki) was below 10 nM throughout.

With `CC(C)COc1ccc(CN(Cc2cccn2C)C(=O)NC2CCN(C)CC2)cc1` [Compound I-009], the Ki was below 10 nM in assay [1] (read-out: h-5-HT2A Ki) and 100 to 5000 nM in assay [2] (read-out: h-5-HT2C Ki). With `COc1ccc(CN(Cc2ccn(C)n2)C(=O)NC2CCN(C)CC2)cc1C` [Compound I-010], the Ki was 10 to 100 nM in assay [1] (read-out: h-5-HT2A Ki) and 100 to 5000 nM in assay [2] (read-out: h-5-HT2C Ki). As for `CN1CCC(NC(=O)N(Cc2ccc(OCCO)cc2)Cc2ccn(C)n2)CC1` [Compound I-011], the inhibitory constant (Ki) in assay [1] (read-out: h-5-HT2A Ki) and in assay [2] (read-out: h-5-HT2C Ki) was 100 to 5000 nM each time. For `CC(C)COc1ccc(CN(Cc2ccn(C)n2)C(=O)CC2CCN(C)CC2)cc1` [Compound I-012], the Ki stood at 6.02 nM in assay [1] (setting [3]) and 33 nM in assay [2] (setting [4]). Turning to `COc1ccc(CN(Cc2ccn(C)n2)C(=O)NC2CCN(C)CC2)c(F)c1` [Compound I-013], the inhibition constant (Ki) in assay [1] (read-out: h-5-HT2A Ki) and in assay [2] (read-out: h-5-HT2C Ki) was 10 to 100 nM in each case. As for `COc1ccc(CN(Cc2ccn(C)n2)C(=O)NC2CCN(C)CC2)cc1F` [Compound I-014], the Ki was below 10 nM in assay [1] (read-out: h-5-HT2A Ki) and 10 to 100 nM in assay [2] (read-out: h-5-HT2C Ki). On to `CN1CCC(NC(=O)N(Cc2ccc3c(c2)CCO3)Cc2ccn(C)n2)CC1` [Compound I-015], for which the Ki in assay [1] (setting [3]) was 45.5 nM. On to `CC(C)COc1ccc(CN(Cc2ccc(F)cn2)C(=O)NC2CCNCC2)cc1` [Compound I-017], for which the Ki in assay [1] (read-out: h-5-HT2A Ki) and in assay [2] (read-out: h-5-HT2C Ki) was below 10 nM in each case. With `CC(C)COc1ccc(CN(Cc2ccncc2)C(=O)NC2CCN(C)CC2)cc1` [Compound I-052], in assay [1] (read-out: h-5-HT2A Ki), the Ki was 10 to 100 nM.

As for `CC(C)COc1ccc(CN(Cc2ccnn2C)C(=O)NC2CCN(C)CC2)cc1` [Compound I-053], the Ki in assay [1] (read-out: h-5-HT2A Ki) was in the range of 100 to 5000 nM. On the same count and under the same terms, next, `CC(C)COc1ccc(CN(Cc2cc(-c3ccccc3)n(C)n2)C(=O)NC2CCN(C)CC2)cc1` [Compound I-055]: 10 to 100 nM; `CC(C)COc1ccc(CN(Cc2cc(C(F)(F)F)ccn2)C(=O)NC2CCN(C)CC2)cc1` [Compound I-056]: 10 to 100 nM. With `CC(C)COc1ccc(CN(Cc2cccnc2)C(=O)NC2CCN(C)CC2)cc1` [Compound I-057], the inhibition constant (Ki) in assay [1] (read-out: h-5-HT2A Ki) fell in the range of 100 to 5000 nM. Still for that read-out and setting: next, `CC(C)COc1ccc(CN(Cc2ccn(C)n2)C(=O)N[C@@H]2C[C@H]3CC[C@@H](C2)N3C)cc1` [Compound I-062]: 10 to 100 nM; `CC(C)COc1ccc(CN(Cc2ccn(C)n2)C(=O)NC2CCN(C3COC3)CC2)cc1` [Compound I-071]: 100 to 5000 nM; `CNC(=O)CN1CCC(NC(=O)N(Cc2ccc(OCC(C)C)cc2)Cc2ccn(C)n2)CC1` [Compound I-072]: 100 to 5000 nM. On the same count and under the same terms, the figure for `CC(C)COc1ccc(CN(Cc2ccn(C)n2)C(=O)N[C@H]2C[C@H]3CCC[C@@H](C2)N3C)cc1` [Compound I-073] is 100 to 5000 nM. Still for that read-out and setting: the figure for `CC(C)COc1ccc(CN(Cc2ccn(C)n2)C(=O)N[C@@H]2C[C@H]3CCC[C@@H](C2)N3C)cc1` [Compound I-074] is below 10 nM.
